Our source for the MIC values is publication PMC6511943, “Structure-Guided Drug Design of 6-Substituted Adenosine Analogues as Potent Inhibitors of Mycobacterium tuberculosis Adenosine Kinase” (Journal of Medicinal Chemistry, 2019).

The test system of this experiment is Mtb H37Rv-resistant mutants (adoK D251N, Q172P, G262S). Format: cell-based, Mycobacterium tuberculosis.

As usually defined, the MIC is the least concentration at which growth counts as inhibited. Higher therefore signals a less susceptible organism. As to `Nc1ncnc2c1c(I)cn2[C@@H]1O[C@H](CO)[C@@H](O)[C@H]1O` [Compound 2, Iodotubercidin], the MIC is more than 100 µM.
